Test system: Bovine chondrocytes
Assay: Viability of isolated chondrocytes suspended 12 hrs at 37° C. in various solutions (membrane integrity dyes)
Assay type: cell-based
Details: bupivacaine 1.25 mg/mL [0.125%]
Description: FIG. 7: Bovine chondrocytes suspended for 12 hrs. at 37° C. in various solutions of phosphate buffered saline (PBS), bupivacaine (1.25 mg/mL [0.125%]), arthroguard and saline. In these experiments, 2.5 mg/mL [0.25%] bupivacaine was combined with arthroguard to yield a final concentration of 1.25 mg/mL [0.125%] bupivacaine in arthroguard. for 12 hrs. Cell viability is assessed by membrane integrity dyes.

SMILES: CCCCN1CCCCC1C(=O)Nc1c(C)cccc1C (stereo not shown) [bupivicaine, bupivacaine]
- amount of cell death of isolated chondrocytes exposed to bupivicaine: increases the amount of cell death
